In paper PMC6278385, “Preclinical Pharmacokinetics of C118P, a Novel Prodrug of Microtubules Inhibitor and Its Metabolite C118 in Mice, Rats, and Dogs” (Molecules, 2018):

What was measured:
Whole blood/plasma ratio = format: in vitro ADME; settings: in rat, incubation 30 min
Experimental: The ratio of C118P and C118 in blood and plasma was studied. The whole blood was obtained from healthy volunteer and was separated into two parts to obtain whole blood and plasma. Standard solution was added into whole blood and plasma to mimic the incurred sample. After incubation for 30 min, the whole blood was separated into two parts. One was frozen and thawed to obtain the homogenous whole blood and the other sample was centrifuged to obtain plasma. The samples were analyzed by the established LC-MS/MS method and the blood plasma ratio was calculated.

[1] = Plasma protein binding by ultrafiltration; format: in vitro ADME; settings: human plasma, read-out: fu (fraction unbound)
Experimental: Both C118P and C118 were stable in the plasma with EDTA as anticoagulant. The non-specific binding to the ultrafilter membrane was negligible. The extent of plasma protein binding was reported as a fraction unbound (fu, %) value which was calculated using the formula fu = PF/TC × 100%, where TC is test compound (C118P or C118) concentration in sample before ultrafiltration, and PF is the test compound concentration in the ultrafiltrate (Table 1).
Plasma protein binding of C118P and C118 were determined by ultrafiltration at four concentrations (C118P: 400, 4000, 40,000, and 400,000 ng/mL, C118: 20, 200, 2000, and 20,000 ng/mL) in pooled plasma from Sprague-Dawley rats, beagle dogs, and humans. Stock solutions of C118P and C118 dissolved in methanol were diluted with blank plasma to achieve the test concentrations (the methanol volume is less than 10% of the plasma). The plasma was incubated for 1 h in a water bath at 37 °C. The total concentration of C118P and C118 of spiked plasma (TC) was analyzed by previously described methods. Ultrafiltration was performed with activated high speed centrifugal tubes (Millipore, Burlington, MA, USA). Plasma samples (0.4 mL) were added to the upper layer of the high speed centrifugal tubes, and then centrifuged at 12,000 g for 10 min. The concentration of unbound C118P and C118 in filtrate (PF) was similarly determined by the previously described methods. The percentage of free fraction (fu) of C118P and C118 was calculated as follows: fu = (PF/TC) × 100%.

[2] = Metabolic stability in liver microsomes; format: in vitro ADME, human
Experimental: (§1) The in vitro metabolic stability of C118P and C118 were estimated in mice, rat, dog, monkey, and human liver microsomes (Research Institute for Liver Diseases Co. Ltd (Shanghai, China)). The incubation mixture contains C118P or C118, NADP (1.0 mM), G-6-P (10 mM), PDH (2 units/mL), MgCl2 (10 mM), and liver microsomes (mice, rats, dogs, monkeys, or humans, 1.0 mg protein/mL) in phosphate buffer. A total of 200 μL of the mixture was removed and quenched with 600 μL acetonitrile in an ice bath at 0, 15, 30, 60, 120, and 240 min after the addition of NADPH.
(§2) CLint, in vitro (the in vitro intrinsic clearance, Equation (1)) was calculated from the t1/2 of C118 disappearance, where Cprotein is the protein concentration during the incubation, and t1/2 was determined by the slope (k) of the log-linear regression analysis of the concentration versus time profiles; thus, t1/2 = ln2/k. […] The in vivo hepatic clearance (CLH, Equation (3)) was then calculated by using CLint and hepatic blood flow, Q ([…] mL·min^−1·kg^−1 in rats, dogs, monkey, and humans, respectively), in the well-stirred liver model disregarding all binding. The hepatic extraction ratio was calculated as CLH divided by Q. CLint, in vitro = (0.693/t1/2) × (1/Cprotein)(1) CLint = CLint, in vitro × (mg protein/g liver weight) × (gliver weight/kg body weight)(2) CLH = (Q × CLint)/(Q + CLint)(3)

[3] = Metabolic stability in liver microsomes; format: in vitro ADME, dog
Experimental: as §1, §2

[4] = Tissue distribution in tumor bearing mice; format: in vivo, nude mice (BALB/cA) implanted with NCI-H460 tumor
Experimental: The nude mice (BALB/cA) implanted with NCI-H460 tumor were provided by Shanghai Institute of Materia Medica. A total of 36 mice were divided into 9 groups with four animals in each group. After fasting overnight with free access to water, the mice were treated with 75 mg/kg C118P by i.v. The blood samples were collected at 2, 10, 20, 40 min, 1, 2, 4, 8, 12 h after treatment and the mice were anaesthetized and decapitated to obtain the blood and tumor tissue. Blood, brain, muscle, ovary, and lung from mice in the PK study were collected at 10 min, 1, 4, and 12 h. Tissues were cleaned by absorbent filter paper to remove the blood. Bloods were centrifuged at 10,000× g for 5 min. Each tissue (0.2 g) was homogenized with 2 mL water. The plasma samples and the homogenates were then processed and determined by the method described above. The concentration was determined by the calibration curve and the actual concentration was corrected by multiplying by 10 according to the dilution times. […]
4. The distribution of CA4P and CA4 in tumor bearing mice.
The nude mice (BALB/cA) implanted with NCI-H460 tumor were provided by Shanghai institute of Materia Medica. A total of 36 mice were divided into 9 groups with 4 animals in each group.
After fasted overnight with free access to water, the mice were treated with 75 mg/kg CA4P by i.v.
The blood samples were collected at 2, 10, 20, 40 min, 1, 2, 4, 8, 12 h after treatment and the mice were anaesthetized and decapitated to obtain the blood and tumor tissue. All procedure are same as C118P in the main text. The concentration was determined by the calibration curve and the actual concentration was corrected by multiplying by 10 according to the dilution times.

[5] = 0.17 h after i.v. 75 mg/kg of C118P, n = 4
[6] = 0.17 h after i.v. 75 mg/kg of C118P, n = 4, in ng/g
[7] = 1 h after i.v. 75 mg/kg of C118P, n = 4
[8] = 4 h after i.v. 75 mg/kg of C118P, n = 4
[9] = 12 h after i.v. 75 mg/kg of C118P, n = 4

SMILES: COc1cc(OC)cc(-c2nc[nH]c2-c2ccc(OC)c(O)c2)c1 [C118]
- blood plasma ratio at 30 min (Whole blood/plasma ratio; whole blood and plasma): 1.05
- fraction unbound at 1 h, 200 ng/mL ([1]; pooled plasma, C118 200 ng/mL): 0.028 ± 0.002
- fraction unbound at 1 h, 2000 ng/mL ([1]; pooled plasma, C118 2000 ng/mL): 0.047 ± 0.002
- fraction unbound at 1 h, 20000 ng/mL ([1]; pooled plasma, C118 20,000 ng/mL): 0.038 ± 0.002
- CLint, in vitro ([2]; human liver microsomes): 58.2 μL·min^−1·mg^−1 Protein
- half-life ([2]; human liver microsomes, 1.0 mg protein/mL, C118 disappearance): 11.9 min
- CLint ([2]; human, scaled from CLint, in vitro): 47.9 mL/min/kg
- Extrapolated CLH ([2]; human, well-stirred liver model): 14.1 mL/min/kg
- CLint, in vitro ([3]; dog liver microsomes): 9.9 μL·min^−1·mg^−1 Protein
- half-life ([3]; dog liver microsomes, 1.0 mg protein/mL, C118 disappearance): 70.1 min
- CLint ([3]; dog, scaled from CLint, in vitro): 18.9 mL/min/kg
- Extrapolated CLH ([3]; dog, well-stirred liver model): 12.8 mL/min/kg
- concentration in muscle [4, 5]: 15,202.5 ± 8814.7
- concentration in ovary [4, 5]: 26,723.8 ± 18,229.6
- concentration in Lung [4, 6]: 26,923.2 ± 4389.0
- concentration in Tumor [4, 6]: 14,563.3 ± 1989.9
- concentration in brain [4, 6]: 3562.8 ± 796.6
- concentration in Plasma ([4]; 0.17 h after i.v. 75 mg/kg of C118P, n = 4, in ng/mL): 26,048.0 ± 2429.7
- concentration in Lung [4, 7]: 1852.3 ± 929.3
- concentration in Plasma [4, 7]: 1730.0 ± 986.4
- concentration in Tumor [4, 7]: 12,998.1 ± 4132.3
- concentration in brain [4, 7]: 1250.7 ± 351.3
- concentration in muscle [4, 7]: 946.8 ± 390.6
- concentration in ovary [4, 7]: 3308.6 ± 2611.1
- concentration in Lung [4, 8]: 231.3 ± 181.7
- concentration in Plasma [4, 8]: 132.6 ± 56.8
- concentration in Tumor [4, 8]: 4969.8 ± 3414.7
- concentration in brain [4, 8]: 109.1 ± 22.0
- concentration in muscle [4, 8]: 136.4 ± 2.8
- concentration in Tumor [4, 9]: 1327.7 ± 1124.0

SMILES: COc1cc(OC)cc(-c2nc[nH]c2-c2ccc(OC)c(OP(=O)([O-])[O-])c2)c1.[Na+].[Na+] [C118P]
- blood plasma ratio at 30 min (Whole blood/plasma ratio): 0.8
- fraction unbound at 1 h, 400 ng/mL ([1]; C118P 400 ng/mL): 0.022 ± 0.001
- fraction unbound at 1 h, 4000 ng/mL ([1]; C118P 4000 ng/mL): 0.027
- fraction unbound at 1 h, 40000 ng/mL ([1]; C118P 40,000 ng/mL): 0.022 ± 0.001
- fraction unbound at 1 h, 400000 ng/mL ([1]; C118P 400,000 ng/mL): 0.057 ± 0.004
- stability in liver microsomes ([2]; human liver microsomes (Figure S1)): quite stable
- stability in liver microsomes ([3]; dog microsomes (Figure S1)): not stable
- concentration in Lung [4, 5]: 130.2 ± 7.5
- concentration in Plasma [4, 5]: 5199.4 ± 2147.9
- concentration in Tumor [4, 5]: 115.8 ± 24.1
- concentration in muscle [4, 5]: 355.4 ± 64.1
- concentration in Plasma [4, 7]: 191.2 ± 60.5
- concentration in Tumor [4, 7]: 73.0 ± 15.0
- concentration in Plasma [4, 8]: 14.7 ± 8.4
- concentration in Tumor [4, 8]: 26.7 ± 0.0
- concentration in Plasma [4, 9]: 6.1 ± 0.0
